Laboratory results: patent US20210116454A1, “METHODS FOR TREATING A HEMATOLOGICAL CANCER AND THE USE OF COMPANION BIOMARKERS FOR 2-(2,6-DIOXOPIPERIDIN-3-YL)-4-((2-FLUORO-4-((3-MORPHOLINOAZETIDIN-1-YL)METHYL)BENZYL)AMINO)ISOINDOLINE-1,3-DIONE” (CELGENE CORPORATION, priority 2019, published 2021)
pIC50: −log10 of the molar value.

Legend:
Type in all cases: cell-based
SU-DHL-4 M-Parental = experiment: Viable cells/apoptosis in doxorubicin-resistant and matching parental lines; conditions: Homo sapiens, read-out: Doxorubicin IC50
Method: (§1) The activity of Compound 1 was also evaluated in cell lines with acquired resistance to doxorubicin (Table 4). Doxorubicin-resistant cell lines (DoxoR) were generated by culturing the parental cell lines in vitro with increasing concentrations of doxorubicin for a long period of time (˜9 to 18 months) until they were able to grow in the presence of a relatively high concentration of doxorubicin (1 μM). Matching parental (M-Parent) cells were generated by maintaining the parental cells in culture without treatment for the same amount of time (˜9 to 18 months). The growth-inhibitory effect of doxorubicin on parental cells and the corresponding resistant cells was evaluated by measuring the number of viable cells and extent of apoptosis by 7-AAD exclusion and Annexin V staining using flow cytometry.
(§2) The effects of Compound 1 on the viability of doxorubicin-resistant versus parental cell lines was determined (FIG. 2; Table 5).

U2932 DoxoR = experiment: as above; conditions: Homo sapiens; U2932 DoxoR; read-out: Doxorubicin IC50
Method: as §1, §2

SU-DHL-4 DoxoR = experiment: as above; conditions: Homo sapiens; SU-DHL-4 DoxoR; read-out: Doxorubicin IC50
Method: as §1, §2

Oci-Ly10 DoxoR = experiment: as above; conditions: Homo sapiens; Oci-Ly10 DoxoR; read-out: Doxorubicin IC50
Method: as §1, §2

WSU-DLCL2 DoxoR = experiment: as above; conditions: Homo sapiens, WSUDLCL2, read-out: Doxorubicin IC50
Method: as §1, §2

U2932 M-Parental = experiment: as above; conditions: Homo sapiens, read-out: Doxorubicin IC50
Method: as §1, §2

Oci-Ly10 M-Parental = experiment: as above; conditions: Homo sapiens; Oci-Ly10 M-Parental; read-out: Doxorubicin IC50
Method: as §1, §2

WSU-DLCL2 M-Parental = experiment: as above; conditions: Homo sapiens, WSUDLCL2, read-out: Doxorubicin IC50
Method: as §1, §2

OCI-LY-7 = experiment: 5-day viable cell number and apoptosis (7-AAD exclusion/Annexin V flow cytometry); conditions: Homo sapiens, OCI-Ly7; OCI-LY-7 cells (Table 3); read-out: IC50
Text: (§3) The DLBCL panel includes seven cell lines classified as activated B-cell (ABC) subtype, thirteen cell lines classified as the germinal center B-cell (GCB) subtype, and three cell lines classified as primary mediastinal B-cell lymphoma (PMBL). […] The translocation of MYC, BCL6, or BCL2 to an IG locus usually leads to high levels of mRNA and protein due to the active transcription driven by a constitutively active IG promoter. […] Expressions of CRBN protein and known substrates, Ikaros, Aiolos, and ZFP91 were also evaluated (FIG. 1, panels B and C).
(§4) The panel of cell lines were treated with increasing doses of compounds for five days, at which time the number of viable cells was measured and the amount of apoptosis was determined by 7-AAD exclusion and Annexin V staining using flow cytometry.

OCI-LY-19 = experiment: as above; conditions: Homo sapiens, OCI-LY19; OCI-LY-19 cells (Table 3); read-out: IC50
Text: as §3, §4

OCI-LY-3 = experiment: as above; conditions: Homo sapiens, OCI-Ly3; OCI-LY-3 cells (Table 3)
Text: as §3, §4

TMD8 = experiment: as above; conditions: Homo sapiens; TMD8 cells (Table 3); read-out: IC50
Text: as §3, §4

KARPAS-422 = experiment: as above; conditions: Homo sapiens; KARPAS-422 cells (Table 3); read-out: IC50
Text: as §3, §4

RC-K8 = experiment: as above; conditions: Homo sapiens, RCK8; RC-K8 cells (Table 3); read-out: IC50
Text: as §3, §4

SU-DHL-2 = experiment: as above; conditions: Homo sapiens; SU-DHL-2 cells (Table 3); read-out: IC50
Text: as §3, §4

SU-DHL-4 = experiment: as above; conditions: Homo sapiens; SU-DHL-4 cells (Table 3); read-out: IC50
Text: as §3, §4

U2932 = experiment: as above; conditions: Homo sapiens; U2932 cells (Table 3); read-out: IC50
Text: as §3, §4

Toledo = experiment: as above; conditions: Homo sapiens; Toledo cells (Table 3); read-out: IC50
Text: as §3, §4

RIVA = experiment: as above; conditions: RIVA cells (Table 3); read-out: IC50
Text: as §3, §4

pIC50 (OCI-LY-7): 5.30
pIC50 (OCI-LY-19): 5.70
pIC50 (OCI-LY-3): 4.94
pIC50 (KARPAS-422): 6.00
pIC50 (SU-DHL-2): 5.89
pIC50 (SU-DHL-4): 6.00
Structure (SMILES): COc1cccc2c1C(=O)c1c(O)c3c(c(O)c1C2=O)C[C@@](O)(C(=O)CO)C[C@@H]3O[C@H]1C[C@H](N)[C@H](O)[C@H](C)O1 [Doxorubicin, reference compound]
pIC50 (SU-DHL-4 M-Parental): 8.00
pIC50 (U2932 DoxoR): 5.97
pIC50 (SU-DHL-4 DoxoR): 5.82
pIC50 (Oci-Ly10 DoxoR): 5.85
pIC50 (WSU-DLCL2 DoxoR): 5.80
pIC50 (U2932 M-Parental): 8.00
pIC50 (Oci-Ly10 M-Parental): 7.70
pIC50 (WSU-DLCL2 M-Parental): 8.00
pIC50 (TMD8): 6.15
pIC50 (RC-K8): 5.46
pIC50 (U2932): 5.52
pIC50 (Toledo): 5.40
pIC50 (RIVA): 5.26
